What was measured:
pseudocholinesterase [1] = biological target: T1, pseudocholinesterase (Homo sapiens, UniProt P06276); experiment: Inhibition of human plasma pseudocholinesterase (PChE) activity (Test Method 1); assay type: biochemical; conditions: 30 min preincubation
T1 construct: a 100 μl aliquot of human plasma; from tissue; host or cells: human plasma (EDTA blood, stored frozen)
Description: (§1) The following method was used to determine the relative inhibition of pseudocholinesterase and acetylcholinesterase by compounds of the present invention.
Plasma (Source of Pseudocholinesterase Enzyme)
Human Plasma was obtained from blood which was collected in ethylenediaminetetraacetic acid (EDTA) treated tubes. Collected plasma was stored frozen at -20° C. until use.
(§2) The buffer/chromogen solution was 0.25 mM 5,5'-dithiobis-[2-nitrobenzoic acid] (chromogen), 50 mM phosphate buffer, pH 7.2. In making up the buffer/chromogen solution and to keep it as colorless as possible, the phosphate buffer was first adjusted to pH 7.1 with NaOH; the chromogen was then added and dissolved; the pH was adjusted to 7.2; and the final volume was adjusted with addition of Milli-Q water. 5,5'-dithiobis-(2-nitrobenzoic acid) was obtained from Sigma Chemicals, St. Louis, MO.
(§3) The substrate solution for the pseudocholinesterase assay was 156 mM S-butyrylthiocholine iodide, and the substrate solution for the acetylcholinesterase assay was 156 mM S-acetylthiocholine iodide. Both substrate compounds were obtained from Sigma Chemicals.
(§4) Test Compound Stock Solutions
(§5) Solutions of all test compounds were made up at 2 μM, 20 μM, and 200 μM concentrations (in 0.9% saline solution) except as noted where lower concentrations were necessary because of decreased solubility of the compound in saline solution.
Pseudocholinesterase (PChE) Assay
In three separate tubes, a 100 μl aliquot of either 0.9% saline solution, 2 μM test compound solution, or 20 μM test compound solution was mixed with a 100 μl aliquot of human plasma, and the tubes were placed in a 35° C. water bath. Four cuvettes, each containing 3 ml buffer/chromogen solution mixed with 100 μl substrate solution (156 mM S-butyrylthiocholine iodide), had been placed in a heated cuvette holder (35° C.) in a Beckman DU-8B Spectrophotometer (Beckman Instruments). After the temperature of the buffer/chromogen/substrate solution in the cuvette had equilibrated for about 10 minutes, and after 0 or 30 minutes incubation of the plasma/test compound solution, a 25 μl aliquot of the plasma/test compound solutions was added to the corresponding cuvettes numbered 2-4. Cuvette #1 remained a blank. After mixing, the net absorbance of each cuvette was determined at 405 nm every 35 seconds for ten readings. From a plot of net absorbance versus time, the initial linear portion of the curve was determined, and a rate of absorbance change per minute was calculated. The positive control (100% PChE activity) was the plasma/saline solution.
(§6) Each compound was tested for its ability to inhibit plasma pseudocholinesterase activity and acetylcholinesterase activity. Because of variation in the time points in the linear portion of the curve, inhibition values below 10-15% and higher than 85-90% are nearly indistinguishable from 0% and 100%, respectively.

acetylcholinesterase = biological target: T2, acetylcholinesterase (Homo sapiens, UniProt P22303); experiment: Inhibition of acetylcholinesterase (AChE) activity of lysed human red blood cells (Test Method 1); assay type: biochemical; conditions: 60 min preincubation
T2 construct: The supernatant (lysed RBC's) was stored frozen; from tissue; host or cells: lysed human red blood cells (supernatant of hypotonic lysis)
T2 sequence (P22303 other isoform, or with tags, fused parts or gaps): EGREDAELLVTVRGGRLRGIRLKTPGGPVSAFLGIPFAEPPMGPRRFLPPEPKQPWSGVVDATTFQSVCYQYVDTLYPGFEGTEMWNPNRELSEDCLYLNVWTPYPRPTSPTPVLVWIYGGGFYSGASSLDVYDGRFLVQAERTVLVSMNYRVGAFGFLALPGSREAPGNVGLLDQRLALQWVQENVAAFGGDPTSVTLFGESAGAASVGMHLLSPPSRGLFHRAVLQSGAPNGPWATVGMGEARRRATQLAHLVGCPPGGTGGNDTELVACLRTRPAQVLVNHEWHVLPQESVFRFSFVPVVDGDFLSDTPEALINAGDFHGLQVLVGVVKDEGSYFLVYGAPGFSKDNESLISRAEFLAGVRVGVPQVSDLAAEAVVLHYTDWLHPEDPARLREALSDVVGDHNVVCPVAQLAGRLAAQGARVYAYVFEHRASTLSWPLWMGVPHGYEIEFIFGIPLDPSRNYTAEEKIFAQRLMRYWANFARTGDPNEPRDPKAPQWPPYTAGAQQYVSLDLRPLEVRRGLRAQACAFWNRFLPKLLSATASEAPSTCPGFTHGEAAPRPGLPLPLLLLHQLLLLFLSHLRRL
Description: as §1
Lysed Red Blood Cells (RBC's) (Source of Acetylcholinesterase Enzyme)
Human blood which was collected in EDTA treated tubes was centrifuged at 1500×g for 10 min. at 4° C. One volume of chilled 0.9% saline solution was gently mixed with one volume of packed RBC's. One volume of this suspension was then washed three times with ten volumes of chilled 0.9% saline solution (4° C.). Each wash was centrifuged at 1500×g for 10 min. at 4° C. and supernatant was discarded. After the last wash the supernatant was replaced with deionized, distilled water (treated by Milli-Q apparatus, Millipore Corp., Bedford, MA) (4° C.). After 15 min. at 4° C. the suspension was centrifuged at 1500×g for 10 min. at 4° C. The supernatant (lysed RBC's) was stored frozen at -20° C. until use.
as §2, §3, §4, §5
Acetylcholinesterase (AChE) Assay
The acetylcholinesterase assay was performed identically to the pseudocholinesterase assay with the following exceptions. The concentrations of the stock solutions of test compounds were 20 μM and 200 μM, instead of 2 μM and 20 μM, and the substrate solution was 156 mM S-acetylthiocholine iodide instead of S-butyrylthiocholine iodide. The lysed RBC's/test compound solution was incubated for 0 and 60 minutes instead of 0 and 30 minutes before being added to the cuvette containing the buffer/chromogen/substrate solution. From a plot of net absorbance versus time there was an initial period before the curve reached a steady linear rate. From this linear portion of the curve a rate of absorbance change per minute was calculated.
as §6

pseudocholinesterase [2] = conditions: accidental poisoning; cited from earlier work
[3] = accidental poisoning; cited from earlier work

T1 sequence (P06276 29-602): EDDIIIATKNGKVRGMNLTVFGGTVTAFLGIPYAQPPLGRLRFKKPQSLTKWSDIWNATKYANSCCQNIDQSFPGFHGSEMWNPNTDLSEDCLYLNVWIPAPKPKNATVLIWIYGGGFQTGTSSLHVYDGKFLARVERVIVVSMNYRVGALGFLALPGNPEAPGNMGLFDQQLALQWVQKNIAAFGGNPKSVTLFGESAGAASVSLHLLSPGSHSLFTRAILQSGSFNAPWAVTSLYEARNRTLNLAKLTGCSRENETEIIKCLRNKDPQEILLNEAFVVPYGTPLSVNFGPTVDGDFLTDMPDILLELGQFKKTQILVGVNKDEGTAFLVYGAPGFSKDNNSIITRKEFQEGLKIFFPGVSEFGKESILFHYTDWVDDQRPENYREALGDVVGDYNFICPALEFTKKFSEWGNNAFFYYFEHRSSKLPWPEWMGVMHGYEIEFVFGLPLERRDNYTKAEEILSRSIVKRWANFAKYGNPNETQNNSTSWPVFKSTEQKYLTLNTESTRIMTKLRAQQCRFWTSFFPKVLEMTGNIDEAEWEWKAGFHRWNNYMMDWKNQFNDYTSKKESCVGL

| SMILES | inhibition at 1 µM (pseudocholinesterase [1]) | inhibition at 10 µM (pseudocholinesterase [1]; 10 μM) | inhibition at 10 µM (acetylcholinesterase) | inhibition at 100 µM (acetylcholinesterase) | further results |
| --- | --- | --- | --- | --- | --- |
| Cc1ccccc1C(=O)NP(N)(N)=O [Test Compound 10] | 21.4% | 89.2% | 8.6% | 44.5% |  |
| CC(C)(C)c1ccc(C(=O)NP(N)(N)=O)cc1 [Test Compound 16] | 46.3% | 97.9% | 3.1% | 38.7% |  |
| NP(N)(=O)NC(=O)c1c(F)cccc1F [Test Compound 21] | 74.4% | 98.7% | 51.1% | 93.7% |  |
| NP(N)(=O)NC(=O)Cc1ccccc1 [Test Compound 18] | 10.7% | 61.3% | 17.1% | 85.2% |  |
| NP(N)(=O)NC(=O)c1cccc(Oc2ccccc2)c1 [Test Compound 19] | 63.7% | 98.3% | 15.8% | 64.2% |  |
| NP(N)(=O)NC(=O)c1ccc(Cl)cc1 [Test Compound 6] | 87.7% | 98.7% | 5.4% | 86.5% |  |
| NP(N)(=O)NC(=O)c1cccc(F)c1 [Test Compound 13] | 80.2% | 98.8% | -4% | 41.3% |  |
| NP(N)(=O)NC(=O)c1ccccc1Cl [Test Compound 11] | 49.5% | 98.5% | 32.1% | 87.3% |  |
| CCOP(=S)(OCC)Oc1ccc([N+](=O)[O-])cc1 [parathione] |  |  |  |  | blood plasma level of pseudocholinesterase (pseudocholinesterase [2]): markedly decreased; HDL [3]: increased; blood plasma level of LDL [3]: markedly decreased |
| CCCCOc1ccc(C(=O)NP(N)(N)=O)cc1 [Test Compound 22] | 28.8% | 94.9% | 12.6% | 57.4% |  |
| NP(N)(=O)NC(=O)c1cccnc1 [Test Compound 2] | 84.1% | 97.6% | -1.9% | 70.7% |  |
| NP(N)(=O)NC(=O)C=Cc1ccccc1 [Test Compound 23] | 11.5% | 73.2% | 6.6% | 54.8% |  |
| COc1ccc(C(=O)NP(N)(N)=O)cc1 [Test Compound 8] | 83.4% | 96.3% | 3% | 34.2% |  |
| NP(N)(=O)NC(=O)c1ccc([N+](=O)[O-])o1 [Test Compound 28] | 21% | 90.8% | 46.9% | 93.1% |  |
| CC(C)NP(N)(=O)NC(=O)c1ccc(F)cc1 (stereo not drawn) [Test Compound 27, N-[amino-(1-methylethylamino)phosphinyl]-4-fluorobenzamide] |  |  |  |  | inhibition at 10 µM (pseudocholinesterase [1]; 10 μM (footnote c)): 8.7%; inhibition at 100 µM (pseudocholinesterase [1]; 100 μM (footnote c)): 43.3%; inhibition at 50 µM (acetylcholinesterase; 50 μM (footnote c)): 5.8%; inhibition at 500 µM (acetylcholinesterase; 500 μM (footnote c)): 32.2% |
| Cc1ccc(C(=O)NP(N)(N)=O)cc1 [Test Compound 9] | 73.7% | 98.1% | 9.6% | 46% |  |
| NP(N)(=O)NC(=O)c1ccc([N+](=O)[O-])cc1 [Test Compound 3] | 90.4% | 99% | 64.3% | 86.9% |  |
| NP(N)(=O)NC(=O)c1cccc([N+](=O)[O-])c1 [Test Compound 7] | 65.6% | 98.9% | 23.9% | 86.6% |  |
| NP(N)(=O)NC(=O)c1cccc(C(F)(F)F)c1 [Test Compound 14] | 25% | 94.1% | 25.7% | 85.9% |  |
| N#Cc1ccc(C(=O)NP(N)(N)=O)cc1 [Test Compound 12] | 97.4% | 98.8% | 34.4% | 85.5% |  |
| NP(N)(=O)NC(=O)c1ccccc1 [Test Compound 1] | 92.7% | 99.1% | 4.1% | 37.3% |  |
| CS(=O)(=O)c1ccc(C(=O)NP(N)(N)=O)cc1 [Test Compound 20, N-(diaminophosphinyl)-4-(methylsulfonyl)benzamide] | 92.9% | 98.5% | 20.5% | 86.4% |  |
| NP(N)(=O)NC(=O)c1ccccc1F [Test Compound 15] | 97.4% | 99.3% | 14.7% | 82.1% |  |
| Nc1ccc(S(=O)(=O)Nc2cccc(C(=O)NP(N)(N)=O)c2)cc1 [Test Compound 25] | 97.2% | 99% | 62.2% | 88.5% |  |
| Nc1ccc(C(=O)NP(N)(N)=O)cc1 [Test Compound 5] | 57.7% | 98.2% | 1.8% | 32.1% |  |
| NP(N)(=O)NC(=O)c1ccco1 [Test Compound 26] | 91% | 98.7% | 7.7% | 73% |  |
| NP(N)(=O)NC(=O)c1ccc(-c2ccccc2)cc1 [Test Compound 24] |  |  |  |  | inhibition at 0.25 µM (pseudocholinesterase [1]; 0.25 μM (footnote b)): 5.3%; inhibition at 2.5 µM (pseudocholinesterase [1]; 2.5 μM (footnote b)): 66.6%; inhibition at 2.5 µM (acetylcholinesterase; 2.5 μM (footnote b)): -3.7%; inhibition at 25 µM (acetylcholinesterase; 25 μM (footnote b)): 34.8% |
| NP(N)(=O)NC(=O)c1ccc2ccccc2c1 [Test Compound 17] |  |  |  |  | inhibition at 0.5 µM (pseudocholinesterase [1]; 0.5 μM (footnote a)): 27.4%; inhibition at 5 µM (pseudocholinesterase [1]; 5.0 μM (footnote a)): 95.1%; inhibition at 5 µM (acetylcholinesterase; 5 μM (footnote a)): 16%; inhibition at 50 µM (acetylcholinesterase; 50 μM (footnote a)): 87.2% |

Source: US4800194A, “Acylphosphorotriamides useful as lipid-altering agents” (priority 1986, dated 1989)
